# Read-outs that look alike come from different tables or passages of the source.
# Experiments:
# MSV-induced tumor = assay: Effect on the evolution of an MSV-induced tumor in newborn NMRI mice; assay type: in vivo
# From the text: Effect of compounds of the general formula I on the evolution
# of an MSV-induced tumor in newborn NMRI mice
# HIV-1 = assay: Effect on multiplication of HIV-1 in tissue cultures of MT-4 cells (suppression of cytopathogenic effect); assay type: cell-based
# From the text: (§1) Effect of compounds of the general formula I on multi-
# (§2) plication of HIV-1 in tissue cultures of MT-4 cells
# ^a Dose, suppressing by 50% the cytopatogenic effect of HIV1 in MT4
# [1] = Cytotoxicity: dose decreasing the viability of MT4 cells to one half; assay type: cell-based; conditions: human, mt-4 cells
# From the text: as §1, §2
# ^b dose, decreasing the viability of MT4 cells to one half;
# [2] = test system: retroviruses, such as HIV; conditions: cited from earlier work
# HIV = conditions: cited from earlier work
# murine leukemia virus = conditions: experimental animals; cited from earlier work
# [3] = test system: simian immunodefficiency virus (SIV); conditions: experimental animals; cited from earlier work
# Moloney sarcoma virus = conditions: experimental animals; cited from earlier work
# [4] = Human immunodeficiency virus 1, MT4, HIV-1, MT-4 cells, read-out: ED50 (dose, suppressing by 50% the cytopatogenic effect of HIV1 in MT4 cells)
# [5] = read-out: CD50 (dose, decreasing the viability of MT4 cells to one half)
Structure (SMILES),Median day of tumor formation (MSV-induced tumor; dose 1 mg/kg/day),Median survival time (MSV-induced tumor; dose 1 mg/kg/day) [days],Median day of tumor formation (MSV-induced tumor; dose 5 mg/kg/day),Median survival time (MSV-induced tumor; dose 5 mg/kg/day) [days],Median day of tumor formation (MSV-induced tumor; dose 20 mg/kg/day),"SI (ratio CD50/ED50) (HIV-1; HIV-1, MT-4 cells)",effect on HIV in tissue cultures (HIV),other results
"Nc1ncnc2c1ncn2CC(CF)OCP(=O)(O)O (racemic) [Compound 1, 9-(RS)-(3-fluoro-2-phosphonylmethoxypropyl)-adenine]",5.8,10.9,7.5,14.4,> 13,> 90,–,"EC50 (HIV-1; [4]): 11.2 µg/mL; CC50 [1, 5]: > 1000 µg/mL"
Nc1nc2c(ncn2CC(CF)OCP(=O)(O)O)c(=O)[nH]1 (racemic) [Compound 2],5.2,11.7,8.5,12.5,> 13,50,–,"Median survival time (MSV-induced tumor; dose 20 mg/kg/day): 10 days; EC50 (HIV-1; [4]): 4.7 µg/mL; CC50 [1, 5]: 233 µg/mL"
"Cc1cn([C@H]2C=C[C@@H](CO)O2)c(=O)[nH]c1=O [2',3'-dideoxy-2',3'-didehydrothymidine]",–,–,–,–,–,–,–,efficiency in the treatment of experimental animals [2]: efficient in the treatment of experimental animals
"Nc1ccn([C@H]2CC[C@@H](CO)O2)c(=O)n1 [2',3'-dideoxycytidine]",–,–,–,–,–,–,–,efficiency in the treatment of experimental animals [2]: efficient in the treatment of experimental animals
Cc1cc(-c2ccc(/N=N/c3ccc4c(S(=O)(=O)O)cc(S(=O)(=O)O)c(N)c4c3O)c(C)c2)ccc1/N=N/c1ccc2c(S(=O)(=O)O)cc(S(=O)(=O)O)c(N)c2c1O [Evans Blue],–,–,–,–,–,–,significant effects in tissue cultures,–
"Nc1ncnc2c1ncn2CCOCP(=O)(O)O [IX, reference compound]",6.1,14.7,10.1,17.2,> 13,7.2,have proven its effect,"effect on murine leukemia virus (murine leukemia virus): have proven its effect; EC50 (HIV-1; Human immunodeficiency virus 1, MT4, read-out: ED50 (dose, suppressing by 50% the cytopatogenic effect of HIV1 in MT4 cells)): 2 µg/mL; CC50 [1]: 14.2 µg/mL; effect on simian immunodefficiency virus (SIV) [3]: have proven its effect; effect on Moloney sarcoma virus (Moloney sarcoma virus): have proven its effect"
O=C(O)C1=CC(=C(c2ccc(O)c(C(=O)O)c2)c2ccc(O)c(C(=O)O)c2)C=CC1=O [aurine-tricarboxylic acid],–,–,–,–,–,–,significant effects in tissue cultures,–

# From patent publication US5733896A, “N-(3-fluoro-2-phosphonylmethoxypropyl) derivatives of purine and pyrimidine heterocyclic bases, their preparation and use” (priority 1990, dated 1998)
